Target: Dopamine receptor
Experiment: Inhibitory activity against constrictor response to electrical stimulation in the isolated perfused rabbit ear artery(REA) expressing dopamine receptor
Set-up: species or system Oryctolagus cuniculus

Compound	EC50 [nM]
CCCN(CCC)CCc1cccc(NC(C)=O)c1	> 1000
CCCN(CCC)CCc1cccc(O)c1	700

Reference: ChEMBL document CHEMBL1122826, “4-[2-(Di-n-propylamino)ethyl]-2(3H)-indolone: a prejunctional dopamine receptor agonist” (J Med Chem, 1985)
